# Measurements reported in the NIST ThermoML archive (doi:10.1021/acs.jced.5b01039).
# Values joined by “and” are separate entries in the source; they are usually repeats but may differ in a detail not shown here. Equal entries are not always repeated. Numbers after ± are expanded uncertainties.
# Conditions: Liquid; for vapor or sublimation pressure: Closed cell (Static) method; for mass density: Pycnometric method
SMILES,vapor or sublimation pressure (300 K),mass density (300 K),vapor or sublimation pressure (310 K),mass density (310 K) [kg/m3],vapor or sublimation pressure (320 K),mass density (320 K),vapor or sublimation pressure (330 K),mass density (330 K),vapor or sublimation pressure (340 K),mass density (340 K),vapor or sublimation pressure (350 K),mass density (350 K),vapor or sublimation pressure (360 K),mass density (360 K),vapor or sublimation pressure (370 K),mass density (370 K),vapor or sublimation pressure (380 K),mass density (380 K),also measured
"F/C=C\C(F)(F)F [(Z)-1,3,3,3-tetrafluoro-1-propene]",185.9 ± 0.8 kPa and 186.4 ± 0.8 kPa,1218.6 ± 1 kg/m3 and 1219.2 ± 1 kg/m3,260.4 ± 0.9 kPa and 260.6 ± 0.9 kPa,1191.2 ± 1,355.3 ± 1 kPa and 355.1 ± 1 kPa,1162 ± 1 kg/m3 and 1163.5 ± 1 kg/m3,473.3 ± 1.2 kPa and 473.5 ± 1.2 kPa,1132.5 ± 1 kg/m3 and 1131.5 ± 1 kg/m3,619 ± 1.4 kPa and 619.2 ± 1.4 kPa,1100.2 ± 1 kg/m3 and 1101.7 ± 1 kg/m3,795.2 ± 1.7 kPa and 794.7 ± 1.7 kPa,1066.1 ± 1 kg/m3 and 1067.3 ± 1 kg/m3,1007.3 ± 2 kPa,1032.6 ± 1 kg/m3 and 1032.3 ± 1 kg/m3,1258.9 ± 2.5 kPa and 1258.7 ± 2.5 kPa,993 ± 1 kg/m3 and 993.3 ± 1 kg/m3,1554.1 ± 3 kPa and 1556.9 ± 3 kPa,951.5 ± 1 kg/m3 and 949.7 ± 1 kg/m3,vapor or sublimation pressure (390 K): 1903.6 ± 3.6 kPa and 1903.7 ± 3.6 kPa; mass density (390 K): 900.5 ± 1.1 kg/m3 and 901.4 ± 1.1 kg/m3; vapor or sublimation pressure (400 K): 2308.3 ± 4.2 kPa and 2308.8 ± 4.2 kPa; mass density (400 K): 843.9 ± 1.1 kg/m3 and 843.6 ± 1.1 kg/m3
"F/C=C/C(F)(F)F [trans-1,3,3,3-tetrafluoropropene]",526.8 ± 1.4 kPa and 526.6 ± 1.4 kPa,1157.7 ± 1 kg/m3 and 1158 ± 1 kg/m3,703.2 ± 1.6 kPa and 702.4 ± 1.6 kPa,1122.8 ± 1,919.6 ± 2 kPa and 919 ± 2 kPa,1085.1 ± 1 kg/m3,1182.6 ± 2.5 kPa and 1182.3 ± 2.5 kPa,1045.3 ± 1 kg/m3 and 1044.7 ± 1 kg/m3,1498.4 ± 3 kPa and 1498.6 ± 3 kPa,1000.9 ± 1 kg/m3 and 1001.5 ± 1 kg/m3,1874 ± 3.7 kPa and 1874.1 ± 3.7 kPa,950.3 ± 1.1 kg/m3 and 950.6 ± 1.1 kg/m3,2318 ± 4.5 kPa and 2319.2 ± 4.5 kPa,889.8 ± 1.1 kg/m3,2841.4 ± 5.5 kPa and 2842.7 ± 5.5 kPa,810.1 ± 1.3 kg/m3,3460 ± 6.4 kPa and 3461.5 ± 6.4 kPa,668.8 ± 1.5 kg/m3 and 670.4 ± 1.5 kg/m3,–
